The results in this text go back to US20200078468A1, “NEUROTENSIN RECEPTOR BINDING CONJUGATES AND FORMULATIONS THEREOF” (priority 2016, published 2020).

As a reminder, the Ki is a dissociation constant, usually derived from enzyme kinetics or from competition with a known ligand.

This experiment concerns the target T1, human NTSR1 (Homo sapiens, UniProt P30989).
T1 construct: host or cells: HEK-293 cells (membrane preparations)
Kind of experiment: radioligand-receptor binding assay, [125I] labeled neurotensin (Eurofins Panlabs). The following applies: [125I] neurotensin 0.02 nM, membranes from NTSR1 expressing HEK-293 cells, 45 minute incubation, Cheng and Prusoff; read-out: NTSR1 binding Ki. On the procedure: Conjugates were assessed in an in vitro assay evaluating binding to NTSR1. A radioligand-receptor binding assay was conducted at Eurofins Panlabs (Taiwan) to determine the affinity of conjugates described herein to NTSR1. The assay measures binding of radiolabeled ligand, [^125I] labeled neurotensin, to human NTSR1 using membrane preparations from NTSR1 expressing HEK-293 cells (Human embryonic kidney cells 293). Membranes were incubated with radiolabeled neurotensin (0.02 nM) in the presence of conjugate/compound starting at a dose of either 100 nM, or 10 nM, using 3× serial dilutions to obtain a 6-pt curve. After a 45 minute incubation, membranes were filtered and washed 3× and counted to determine the remaining [^125I] neurotensin bound to the receptor. IC50 values were determined by a non-linear, least squares regression analysis using MathIQ™ (ID Business Solutions Ltd., UK). The Ki values were calculated using the equation of Cheng and Prusoff (Cheng and Prusoff, Biochem. Pharmacol. 22:3099-3108, 1973) using the observed IC50 of the tested conjugate/compound, the concentration of radioligand employed in the assay, and the historical values for the Kd of the ligand obtained at Eurofins.

T1 sequence (P30989 whole entry): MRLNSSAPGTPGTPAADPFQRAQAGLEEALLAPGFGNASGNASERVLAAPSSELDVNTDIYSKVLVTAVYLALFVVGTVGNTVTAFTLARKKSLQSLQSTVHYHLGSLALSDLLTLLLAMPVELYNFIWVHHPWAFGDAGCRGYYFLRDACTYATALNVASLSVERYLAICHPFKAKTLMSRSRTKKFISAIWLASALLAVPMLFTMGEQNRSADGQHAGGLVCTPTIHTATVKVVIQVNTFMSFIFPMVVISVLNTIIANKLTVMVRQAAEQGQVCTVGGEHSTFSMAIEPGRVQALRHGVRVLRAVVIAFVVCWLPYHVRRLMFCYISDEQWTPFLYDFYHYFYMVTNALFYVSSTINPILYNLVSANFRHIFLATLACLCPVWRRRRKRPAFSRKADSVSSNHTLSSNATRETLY

As to `COc1cc2cc(c1Cl)N(C)C(=O)C[C@H](OC(=O)[C@H](C)N(C)C(=O)CCSC1CC(=O)N(CCCNC(=O)CNC(=O)[C@H](CC(C)C)NC(=O)[C@H](Cc3ccccc3)NC(=O)CNC(=O)CCCCCN3C(=O)CC(SCCC(=O)NCCCC[C@H](NC(C)=O)C(=O)N4CCC[C@H]4C(=O)N[C@H](CCCNC(=N)N)C(=O)N[C@@H](CCCNC(=N)N)C(=O)N4CCC[C@H]4C(=O)N[C@@H](Cc4ccc(O)cc4)C(=O)N[C@H](C(=O)N[C@@H](C[Si](C)(C)C)C(=O)O)C4CCCCC4)C3=O)C1=O)[C@]1(C)O[C@H]1[C@H](C)[C@@H]1C[C@@](O)(NC(=O)O1)[C@H](OC)/C=C/C=C(\C)C2` (some centres unmarked) [Compound 41], the inhibition constant Ki was found to be 890 pM.
For `COc1cc2cc(c1Cl)N(C)C(=O)C[C@H](OC(=O)[C@H](C)N(C)C(=O)CCSC1CC(=O)N(CCCNC(=O)CNC(=O)[C@H](CC(C)C)NC(=O)[C@H](Cc3ccccc3)NC(=O)CNC(=O)CCCCCN3C(=O)CC(SCCC(=O)NCCCC[C@H](NC(C)=O)C(=O)N4CCC[C@H]4C(=O)N[C@H](CCCNC(=N)N)C(=O)N[C@@H](CCCNC(=N)N)C(=O)N4CCC[C@H]4C(=O)N[C@@H](Cc4ccc(O)cc4)C(=O)N[C@H](C(=O)N[C@@H](C[Si](C)(C)C)C(=O)O)C4CCCC4)C3=O)C1=O)[C@]1(C)O[C@H]1[C@H](C)[C@@H]1C[C@@](O)(NC(=O)O1)[C@H](OC)/C=C/C=C(\C)C2` (some centres unmarked) [Compound 42], the Ki is 640 pM.
With `CC[C@H](C)[C@H](NC(=O)[C@H](Cc1c[nH]c2ccccc12)NC(=O)[C@@H]1CCCN1C(=O)[C@H](CCCNC(=N)N)NC(=O)[C@@H](CCCNC(=N)N)NC(=O)[C@@H]1CCCN1C(=O)[C@H](CCCCNC(=O)CCSC1CC(=O)N(CCCCCC(=O)NCC(=O)N[C@@H](Cc2ccccc2)C(=O)N[C@@H](CC(C)C)C(=O)NCC(=O)NCCCN2C(=O)CC(SCCC(=O)N(C)[C@@H](C)C(=O)O[C@H]3CC(=O)N(C)c4cc(cc(OC)c4Cl)C/C(C)=C/C=C/[C@@H](OC)[C@@]4(O)C[C@H](OC(=O)N4)[C@@H](C)[C@@H]4O[C@@]34C)C2=O)C1=O)NC(C)=O)C(=O)N[C@@H](C[Si](C)(C)C)C(=O)O` (some centres unmarked) [Compound 43], the Ki was determined as 1310 pM.
For `CC[C@H](C)[C@H](NC(=O)[C@H](Cc1ccc(O)c(O)c1)NC(=O)[C@@H]1CCCN1C(=O)[C@H](CCCNC(=N)N)NC(=O)[C@@H](CCCNC(=N)N)NC(=O)[C@@H]1CCCN1C(=O)[C@H](CCCCNC(=O)CCSC1CC(=O)N(CCCCCC(=O)NCC(=O)N[C@@H](Cc2ccccc2)C(=O)N[C@@H](CC(C)C)C(=O)NCC(=O)NCCCN2C(=O)CC(SCCC(=O)N(C)[C@@H](C)C(=O)O[C@H]3CC(=O)N(C)c4cc(cc(OC)c4Cl)C/C(C)=C/C=C/[C@@H](OC)[C@@]4(O)C[C@H](OC(=O)N4)[C@@H](C)[C@@H]4O[C@@]34C)C2=O)C1=O)NC(C)=O)C(=O)N[C@@H](C[Si](C)(C)C)C(=O)O` (some centres unmarked) [Compound 44], the inhibition constant (Ki) is 230 pM.
Then `CC[C@H](C)[C@H](NC(=O)[C@@H](Cc1ccc(O)cc1)NC(=O)[C@@H]1CCCN1C(=O)[C@H](CCCNC(=N)N)NC(=O)[C@@H](CCCNC(=N)N)NC(=O)[C@@H]1CCCN1C(=O)[C@H](CCCCNC(=O)CCSC1CC(=O)N(CCCCCC(=O)NCC(=O)N[C@@H](Cc2ccccc2)C(=O)N[C@@H](CC(C)C)C(=O)NCC(=O)NCCCN2C(=O)CC(SCCC(=O)N(C)[C@@H](C)C(=O)O[C@H]3CC(=O)N(C)c4cc(cc(OC)c4Cl)C/C(C)=C/C=C/[C@@H](OC)[C@@]4(O)C[C@H](OC(=O)N4)[C@@H](C)[C@@H]4O[C@@]34C)C2=O)C1=O)NC(C)=O)C(=O)N[C@@H](C[Si](C)(C)C)C(=O)O` (some centres unmarked) [Compound 45], with greater than 10000 pM.
